Patent publication US20080206253A1, “Method For Preventing or Treating Pain in a Mammal” (priority 2005, published 2008)
“Also recorded” adds a separate entry of the source.

How the values were obtained:
[1] = tested on: phosphorylated p38 (P-p38); test: IT substance P-evoked spinal p38 phosphorylation (Western blot); assay type: in vivo, rat; details: IT AS daily for five days, assessed 30 minutes after IT SP injection, compared to the MS group
Method: Yaksh et al., Nature 286: 155-157, 1980; Yaksh, Trends Pharmacol Sci 20: 329-337, 1999. […] Malmberg and Yaksh, Science 257: 1276-1279, 1992; Svensson et al., J Neurochem 86: 1534-1544, 2003. […] To investigate the contribution of p38α and p38β to SP-evoked hyperalgesia and p38 phosphorylation, spinal delivery of p38α and p38β AS and MS was carried out. Thermal withdrawal latencies was assessed after IT injection of SP and lumbar spinal cords collected immediately to compare the degree of spinal p38 phosphorylation at the hypothesized time of peak phosphorylation. IT injection of SP into the MS group produced an expected reduction of thermal withdrawal latency in comparison with IT saline injection into to vehicle treated animals (FIG. 7C). […] In contrast, IT SP-induced thermal hyperalgesia was attenuated in rats which had received p38β AS (FIG. 7E). […] Stripping and reprobing the western blot membranes confirmed that p38α protein expression was knocked down in p38α AS treated group (FIG. 7D) as well as p38β in the p38β AS group (FIG. 7F).
(A) Graph displaying paw withdrawal latency (PWL) plotted versus time. […] (B) Representative western blots showing levels of P-p38, total p38 and β-actin in lumbar spinal cord at different time points after IT injection of SP (30 nmol). IT-SP induced p38 phosphorylation peaks 30 minutes after SP injection. (C, E) Graph showing PWL assessed 15 and […] after bolus injection of IT saline or IT SP injection in rats treated with IT ACSF, MS (30 μg), p38α AS (30 fig) or p38β AS (20 μg) daily for five days. […] IT injection of MS or ACSF had no effect on IT SP-evoked thermal hyperalgesia. Each time point represents the mean ±SEM (n=4-5 per group). (D, F) Representative western blots showing the level of P-p38, p38α and p38β and β-actin protein expression assessed 30 minutes after IT SP injection.
Western blot. Prior to sacrifice, rats were deeply anesthetized and after decapitation the spinal cords were ejected from the vertebral column by a saline-filled syringe. The lumbar part of the spinal cord was immediately homogenized in extraction buffer (50 mM Tris buffer, pH 8.0, containing 0.5% Triton X-100, 150 mM NaCl, 1 mM EDTA, phosphatase and protease inhibitors) by sonication. […] After washing, the antibody-protein complexes were probed with appropriate secondary antibodies labeled with horseradish peroxidase for 1 hr at room temperature and detected with chemiluminescent reagents (SuperSignal, Pierce, Rockford, Ill.). […] Intensity of immunoreactive bands was quantified using ImageQuant software (Molecular Dynamics, Sunnyvale, Calif.). p38 immuno-positive bands were normalized relative to β-actin.

[2] = tested on: phosphorylated p38 (P-p38); test: Formalin-induced phosphorylation of spinal p38 (Western blot); assay type: in vivo, rat; details: IT p38α AS 30 μg or p38β AS 20 μg for 5 days; assessed 15 minutes after formalin; in comparison to MS treated rats
Method: Injection of formalin into the hind paw leads to phosphorylation of p38 MAP kinase in spinal cord, by 5 minutes after injection. Svensson et al., J Neurochem 86: 1534-1544, 2003b. A full time course was performed (0, 5, 15, 20, 30, 60 min) for formalin-induced phosphorylation of spinal p38 and found peak p38 phosphorylation at 15 min (FIG. 6A). As shown above, down regulation of spinal p380, leads to attenuation of formalin-induced hyperalgesia, it was hypothesized that down-regulation of spinal p38, would reduce the amount of phosphorylated p38 in the spinal cord after formalin injection.
(A) Representative western blots showing levels of P-p38, total p38 and β-actin in the contralateral (left side) and ipsilateral (right side) lumbar spinal cord at different time points after injection of formalin (2.5%, 50 μl) into the dorsal side of the right hind paw. (B) Rats were naïve (no IT treatment, no formalin paw injection) or treated with p38α AS (30 μg), p38β AS (20 μg) or missense (30 μg) for 5 days. On day six, formalin was injected to the hind paw and the level of phosphorylated p38 (P-p38) assessed 15 minutes after injection. […]
Western blot. […] After washing, the antibody-protein complexes were probed with appropriate secondary antibodies labeled with horseradish peroxidase for 1 hr at room temperature and detected with chemiluminescent reagents (SuperSignal, Pierce, Rockford, Ill.). […]

| Substance | phosphorylation of spinal p38 following IT SP [1] | phosphorylated p38 in the spinal cord after formalin injection [2] | phosphorylation of spinal p38 following IT SP ([1]; listed as p38 AS) |
| --- | --- | --- | --- |
| p38α AS: 20-nucleotide 2′-MOE phosphorothioate chimeric antisense AGGTGCTCAGGACTCCATTT, beginning at position 1081 in the rat p38α mRNA (all phosphorothioate, sugars by position and methylation of C not given here; 2'-MOE chimeric (gapmer) antisense) | did not show a reduction; also recorded: No difference in P-p38 | did not prevent spinal p38 phosphorylation | – |
| p38β AS: 20-nucleotide 2′-MOE phosphorothioate chimeric antisense GTATGTCCTCCTCGCGTGGA, beginning at position 439 in the rat p38β mRNA (all phosphorothioate, sugars by position and methylation of C not given here; 2'-MOE chimeric (gapmer) antisense) | pronounced reduction | reduction of phosphorylated p38 | significantly lower |
